From US20250002483A1, “S[…]-ALANINATE DERIVATIVES” (Bayer Aktiengesellschaft, priority 2021, published 2025) come the findings set out here.

By solubility is commonly meant how much of the substance goes into solution per volume. A higher solubility goes with a readily soluble substance.

SMILES strings stand for the structures.

This data set in a line: physchem. The conditions noted are these: 25 °C, pH 4, aqueous buffer, thermodynamic from solid.

Method: 25 mg compound are placed in 2 ml solvent. […] Thereafter, the solution or suspension is filtered and the remaining solution is analyzed via HPLC. The solubility is determined by comparison of the total area of the substance peak to a calibration curve (external standard).
Thereafter, the solution was centrifuged and analyzed via HPLC. The solubility was determined by comparison of the total area of the substance peak to a calibration curve (external standard). The measurements were conducted in triplicates.

`CCc1c(N2CC[C@H](O)C2=O)cccc1S(=O)(=O)N[C@@H](CNC(=O)c1ccc(Cl)s1)C(=O)OCCc1nccn1C.Cl` [Example 2, 2-(1-Methyl-1H-imidazol-2-yl)ethyl 3-[(5-chlorothiophene-2-carbonyl)amino]-N-{2-ethyl-3-[(3S)-3-hydroxy-2-oxopyrrolidin-1-yl]benzene-1-sulfonyl}-S-alaninate hydrochloride] gave a solubility of more than 500 mg/mL.
